Laboratory results taken from the supplement of paper PMC10331698.
± gives the standard deviation of the averaged measurements.

What was measured:
Test in all cases: level (log10 ratio to DMSO vehicle control); higher = higher biomarker level / cell amount than vehicle control
[1] = compound: FC(F)(F)COC(OCC(F)(F)F)OCC(F)(F)F [tris(Trifluoroethoxy)methane]; conditions: in DMSO
Method: (§1)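 BioMAP Diversity Plus panel of 12 human primary cell co-culture systems (3C, 4H, LPS, SAg, BT, BF4T, BE3C, CASM3C, HDF3CGF, KF3CT, MyoF, Mphg). Compounds were added 1 h before stimulation and left for 24 h (MyoF 48 h; BT 72 h for soluble read-outs or 6 d for IgG). Biomarkers were read by ELISA, cytotoxicity by SRB, PBMC viability and proliferation by Alamar Blue. Each well value was divided by the mean of 8 DMSO control wells on the same plate and log10 transformed; duplicate blinded samples were tested at 4 concentrations.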

[2] = compound: OCCC(F)(F)C(F)(F)C(F)(F)C(F)(F)C(F)(F)C(F)(F)C(F)(F)C(F)(F)F [8:2 Fluorotelomer alcohol]; conditions: 6700 nM; in DMSO
Method: as §1

[3] = compound: OCCCCC(F)(F)C(F)(F)C(F)(F)C(F)(F)F [4:4 Fluorotelomer alcohol]; conditions: in DMSO
Method: as §1

[4] = compound: OCCCC(F)(F)C(F)(F)C(F)(F)C(F)(F)C(F)(F)C(F)(F)C(F)(F)C(F)(F)F [3-(Perfluorooctyl)propanol]; conditions: 6700 nM; in DMSO
Method: as §1

[5] = compound: OCC(F)(F)C(F)(F)C(F)(F)C(F)(F)C(F)(F)C(F)(F)C(F)(F)C(F)(F)C(F)(F)C(F)(F)C(F)(F)F [11:1 Fluorotelomer alcohol]; conditions: in DMSO
Method: as §1

[6] = compound: FC(F)(I)C(F)(F)C(F)(F)C(F)(F)C(F)(F)C(F)(F)I [1,6-Diiodoperfluorohexane]; conditions: 6700 nM; in DMSO
Method: as §1

[7] = compound: C=CC(=O)OCCC(F)(F)C(F)(F)C(F)(F)C(F)(F)C(F)(F)C(F)(F)C(F)(F)C(F)(F)F [8:2 Fluorotelomer acrylate]; conditions: in DMSO
Method: as §1

[8] = compound: OCC(F)(F)C(F)(F)C(F)(F)C(F)(F)C(F)(F)C(F)(F)F [6:1 Fluorotelomer alcohol]; conditions: in DMSO
Method: as §1

Row | Test System | level (log10) ([1]; 6700 nM) | level (log10) ([1]; 20000 nM) | level (log10) ([1]; 60000 nM) | level (log10) [2] | level (log10) ([3]; 6700 nM) | level (log10) ([3]; 20000 nM) | level (log10) ([3]; 60000 nM) | level (log10) [4] | level (log10) ([5]; 1100 nM) | level (log10) ([5]; 3300 nM) | level (log10) ([5]; 10000 nM) | level (log10) [6] | level (log10) ([7]; 6700 nM) | level (log10) ([7]; 20000 nM) | level (log10) ([7]; 60000 nM) | level (log10) ([8]; 6700 nM) | level (log10) ([8]; 20000 nM) | level (log10) ([8]; 60000 nM)
1 | LPS:CD62E/E-Selectin | -0.009 ± 0.033 | -0.005 | -0.009 ± 0.0071 | 0.012 ± 0.018 | -0.0015 ± 0.033 | -0.0135 ± 0.028 | -0.012 ± 0.0099 | -0.148 ± 0.079 | 0.016 ± 0.0085 | 0.01 ± 0.0099 | 0.015 ± 0.014 | -0.024 | 0.002 ± 0.011 | 0 ± 0.011 | 0.019 ± 0.014 | 0.001 ± 0.018 | -0.013 ± 0.011 | -0.014 ± 0.0071
2 | LPS:CD69 | -0.0085 ± 0.015 | 0.012 ± 0.017 | 0.0295 ± 0.018 | -0.063 ± 0.11 | -0.0335 ± 0.016 | -0.0135 ± 0.015 | -0.0135 ± 0.015 | -0.011 ± 0.016 | 0.006 ± 0.021 | 0.004 | -0.003 ± 0.031 | -0.019 | 0.012 ± 0.054 | -0.044 ± 0.05 | -0.052 ± 0.061 | -0.017 ± 0.0042 | -0.0135 ± 0.0064 | -0.0085 ± 0.005
3 | LPS:CD106/VCAM-1 | -0.025 ± 0.027 | 0.011 ± 0.013 | 0.002 ± 0.037 | -0.0785 ± 0.042 | -0.001 ± 0.011 | 0.0045 ± 0.018 | 0.003 ± 0.02 | -0.158 ± 0.17 | -0.025 ± 0.0042 | -0.025 ± 0.02 | -0.015 ± 0.0028 | -0.041 | -0.029 ± 0.013 | -0.05 ± 0.013 | -0.053 ± 0.0099 | -0.033 ± 0.023 | -0.041 ± 0.016 | -0.023 ± 0.02
4 | LPS:CD141/Thrombomodulin | -0.042 ± 0.042 | -0.0385 ± 0.0078 | -0.0505 ± 0.0035 | -0.0605 ± 0.14 | 0.0135 ± 0.032 | 0.0215 ± 0.0078 | 0.007 ± 0.0085 | 0.092 ± 0.031 | -0.0285 ± 0.015 | -0.0185 ± 0.012 | -0.0035 ± 0.013 | 0.007 | -0.044 ± 0.04 | -0.085 ± 0.016 | -0.0925 ± 0.03 | -0.0225 ± 0.03 | -0.021 ± 0.051 | 0.002 ± 0.0057
5 | LPS:CD142/Tissue Factor | -0.013 ± 0.011 | -0.02 ± 0.027 | -0.0085 ± 0.06 | -0.0205 ± 0.1 | 0.003 ± 0.027 | 0.031 ± 0.027 | -0.0095 ± 0.023 | -0.126 ± 0.066 | 0.056 ± 0.0028 | 0.084 ± 0.03 | 0.0995 ± 0.00071 | 0.019 | 0.0375 ± 0.0035 | 0.0245 ± 0.044 | 0.0085 ± 0.03 | -0.0035 ± 0.03 | 0.0215 ± 0.011 | 0.0155 ± 0.016
6 | LPS:CXCL8/IL-8 | -0.0245 ± 0.049 | -0.0285 ± 0.022 | 0.0315 ± 0.08 | -0.0375 ± 0.029 | 0.0295 ± 0.005 | 0.0205 ± 0.033 | 0.027 ± 0.041 | -0.132 ± 0.014 | -0.007 ± 0.011 | -0.013 ± 0.0014 | -0.0305 ± 0.039 | 0.002 | -0.0055 ± 0.0092 | -0.036 ± 0.04 | -0.0085 ± 0.018 | 0.002 ± 0.011 | -0.007 ± 0.018 | 0.0235 ± 0.0021
7 | LPS:IL-1alpha | -0.019 ± 0.014 | -0.015 ± 0.014 | -0.0095 ± 0.035 | -0.015 ± 0.013 | -0.01 ± 0.04 | -0.021 ± 0.028 | 0.014 ± 0.048 | -0.267 ± 0.065 | -0.0655 ± 0.0092 | -0.14 ± 0.0035 | -0.144 ± 0.012 | -0.016 | 0.021 ± 0.013 | 0.0315 ± 0.052 | 0.0315 ± 0.0078 | -0.038 ± 0.03 | -0.015 ± 0.061 | -0.0105 ± 0.023
8 | LPS:M-CSF | 0.003 ± 0.0085 | 0.005 ± 0.0042 | -0.0005 ± 0.0092 | -0.06 ± 0.13 | 0.0085 ± 0.0078 | -0.001 ± 0.017 | 0.018 ± 0.0085 | -0.073 ± 0.03 | -0.009 ± 0.018 | -0.054 ± 0.047 | -0.0825 ± 0.066 | -0.008 | 0.001 ± 0.0085 | -0.006 ± 0.023 | -0.03 ± 0.0014 | 0.009 ± 0.038 | 0.0085 ± 0.05 | 0.0125 ± 0.023
9 | LPS:SRB | -0.0065 ± 0.0021 | -0.0015 ± 0.011 | -0.0015 ± 0.0078 | -0.0125 ± 0.011 | 0.02 ± 0.0057 | 0.022 ± 0.024 | 0.017 ± 0.033 | -0.033 ± 0.018 | -0.029 ± 0.0099 | -0.0455 ± 0.0021 | -0.036 ± 0.0014 | 0.012 | 0.0015 ± 0.0021 | -0.005 ± 0.0014 | 0.004 ± 0.0042 | -0.005 ± 0.0014 | -0.0105 ± 0.005 | -0.0005 ± 0.0092
10 | LPS:sPGE2 | -0.0105 ± 0.022 | -0.0085 ± 0.0035 | 0.0185 ± 0.013 | -0.11 ± 0.033 | 0.0035 ± 0.0092 | -0.015 ± 0.0099 | -0.015 ± 0.055 | -0.061 ± 0.061 | 0.151 ± 0.075 | 0.212 ± 0.0064 | 0.211 ± 0.044 | -0.063 | -0.118 ± 0.005 | -0.102 ± 0.044 | -0.069 ± 0.03 | -0.0055 ± 0.028 | 0.004 ± 0.0099 | 0.005 ± 0.03
